In one data set the test system is E. coli. Briefly: Bacteria competition assay with 3H-maltose. The class given is cell-based. To be noted: test compound 1 mM, 1 hr at 37° C., then 3H-maltose 30 min. On the procedure:
A competition binding assay between the synthesized derivatives and ^3H-maltose that is taken up in bacteria by the ABC transporter, was conducted.
Aliquots of 10^8 colony forming units (CFU) of E. coli were first incubated with test compounds (1 mM) for 1 hr at 37° C. After the first incubation, the bacteria culture was centrifuged at 10,000 rpm for 5 min and pellet washed with 1×HBSS three times. Pellets were suspended in a solution of ^3H-maltose (1 μCi in 200 μL HBSS (1×); American Radiolabeled Chemicals, Inc., USA) and incubated for 30 min at 37° C. Aliquots were centrifuged and washed with 1×HBSS three times before lysing in a bacterial lysis buffer (BugBuster, EMD, Billerica Mass. USA). Activity in bacteria lysates was then counted in a […] and protein concentration determined using a bicinchoninic acid (BCA) assay (Pierce, Thermo Fisher Scientific). Test compounds included maltose as a positive control, azide-1-maltotriose/maltohexose and Cy7-1-maltotriose/maltohexose. In addition, aliquots incubated with only ^3H-maltose were also included to assess normal uptake. Results are shown as counts per minute (cpm) normalized to protein content (μg of protein) per sample (n=3 per study).

Data set [1] in a line: Plasma stability, human plasma. The class given is in vitro ADME. Conditions: 37° C. Here is the method:
Samples were then centrifuged and the supernatant analyzed on the analytical HPLC column (HPLC method). […] Monitoring was at 750 nm and the area of any observed peak was assessed in each HPLC chromatogram.

The nature of another data set: Stability in PBS. The class given is physicochemical. Conditions: 37° C., up to 24 hr. Here is the method:
Compound 3a or 3b (100 μM) was incubated in either PBS (1×), murine, human, or rat plasma at 37° C. for up to 24 h. At each time point (0, 2, 4, 10 and 24 h), a 100 μL aliquot of the mixture was taken and added to an ice-cold acetonitrile solution (200 μL) and vortexed for 10 seconds. Samples were then centrifuged and the supernatant analyzed on the analytical HPLC column (HPLC method). […] Monitoring was at 750 nm and the area of any observed peak was assessed in each HPLC chromatogram. Bar plot representation of the compound stability is shown as % intact where

The test system of another data set is S. aureus-infected wound. Briefly: Fluorescence and bioluminescence imaging in S. aureus wound-infection murine model. Format: in vivo, mice. To be noted: treated group, vancomycin for 7 days. Here is the method: Female CD1 or SKH1 elite mice, 6-8 weeks old were anesthetized by isoflurane inhalation (2-3%). A small wound on the upper or lower back of the mice was formed using a sharp pair of scissors. 10^8 CFU, 10^6 CFU, or 10^4 CFU Staphylococcus aureus in 20 μL saline was inoculated into a small pocket subcutaneously before sealing the wound with Vetbond adhesive (1469SB; 3M).
After subcutaneous inoculation of 10^8 CFU (n=5), 10^6 CFU (n=3) and 10^4 CFU (n=3) of S. aureus in the wound, Cy7-1-maltotriose (5 nmol in 2% DMSO/saline, 100 μL injection) was injected via the tail vein. To insure no other infections occur, a daily dose of kanamycin (800 mg/kg) was given to the mice intramuscularly. Fluorescence and bioluminescence images were then captured at 5 and 20 hr post injection of the probe. Image analysis was conducted using Living Image® software.
Fluorescence and Bioluminescence Imaging: After subcutaneous inoculation of 10^6 CFU (n=9) of kanamycin-resistant S. aureus in the wound, mice were administered kanamycin (800 mg/kg) intramuscularly once daily to insure no other bacterial infections occur. Two days after surgery, Cy7-1-maltotriose (10 nmol in 2% DMSO/saline, 200 μL injection) was injected via the tail vein and bioluminescence and fluorescence imaging were performed at 19, 45, 69, 93 and 144 hrs post injection. […]

Consider four molecules from patent publication US20200061215A1, “MALTOTRIOSE-BASED PROBES FOR FLUORESCENCE AND PHOTOACOUSTIC IMAGING OF BACTERIA” (The Board of Trustees of the Leland Stanford Junior …, priority 2018, published 2020).

maltotriose: the “3H-maltose uptake in E. coli when pre-incubated with test compound” value (shortened to “3H-maltose uptake in E. coli”) in the data set with E. coli is “significant reduction”. Further, in data set [1], the “degradation in human plasma” value is on record as “no degradation”. Besides, the “stability in PBS” value in the data set “Stability in PBS” is “stable”. As to `OC[C@H]1O[C@H](O[C@H]2[C@H](O)[C@@H](O)[C@@H](O[C@H]3[C@H](O)[C@@H](O)[C@@H](O[C@H]4[C@H](O)[C@@H](O)[C@@H](O[C@H]5[C@H](O)[C@@H](O)[C@@H](O[C@H]6[C@H](O)[C@@H](O)C(O)O[C@@H]6CO)O[C@@H]5CO)O[C@@H]4CO)O[C@@H]3CO)O[C@@H]2CO)[C@H](O)[C@@H](O)[C@@H]1O` (stereo partly shown) [maltohexose], in the data set with E. coli, the “3H-maltose uptake in E. coli” value was “significant reduction”. In addition, in the data set “Stability in PBS”, the “stability in PBS” value is on record as “stable”. In the case of `CN[C@H](CC(C)C)C(=O)N[C@H]1C(=O)N[C@@H](CC(N)=O)C(=O)N[C@H]2C(=O)N[C@H]3C(=O)N[C@H](C(=O)N[C@H](C(=O)O)c4cc(O)cc(O)c4-c4cc3ccc4O)[C@H](O)c3ccc(c(Cl)c3)Oc3cc2cc(c3O[C@@H]2O[C@H](CO)[C@@H](O)[C@H](O)[C@H]2O[C@H]2C[C@](C)(N)[C@H](O)[C@H](C)O2)Oc2ccc(cc2Cl)[C@H]1O` [vancomycin], in the data set on S. aureus-infected wound, the “S. aureus infection in wound after treatment (FLI image, confirmed by BLI)” value is listed as “complete disappearance of S. aureus infection”. Turning to `OC[C@H]1O[C@H](O[C@H]2[C@H](O)[C@@H](O)C(O)O[C@@H]2CO)[C@H](O)[C@@H](O)[C@@H]1O` (mixture of isomers) [maltose], in the data set with E. coli, the “3H-maltose uptake in E. coli” value is recorded as “significant reduction”.
